Source: a melting point compilation (Tetko et al.; mined from patent text by program, amines drawn as free bases though some values may be those of a salt)

Row | SMILES | melting point [°C]
1 | O=C(O)C(Oc1ccccc1)(C(F)(F)F)C(F)(F)F | 6 to 8
2 | Cc1nc(C=Cc2nc3ccc(F)cc3c(=O)n2-c2ccccc2Br)cs1 | 233 to 234
3 | COCOc1ccc(Cl)cc1-c1cc(-c2cccc(N)c2)c(C#N)c(NC(=O)c2ccccc2)n1 | 174 to 175
4 | Cc1nnsc1CS(=O)(=O)c1ccccc1 | 118
5 | CC(C)(C)CC(=O)Nc1ccc2oc3c(c2c1)CCCCC3 | 182 to 183
6 | CCCc1c(Cl)sc2[nH]c(=O)c(=O)[nH]c12 | 285 to 287
7 | C(=C/c1cn(C(c2ccccc2)(c2ccccc2)c2ccccc2)cn1)/CCOCc1ccccc1 | 101 to 104
8 | OC(c1cccc2nc3n(c12)CCCN3c1ccc(Cl)cc1Cl)C1CC1 (centres undefined) | 208 to 209
9 | O=C(Nc1ccc(OCC2CCCO2)c([N+](=O)[O-])c1)OCCCl (centres undefined) | 84 to 86
10 | Clc1ccc(-c2nc3cccnc3n2Cc2ncc[nH]2)cc1 | 184 to 185
11 | CCC1CC(=Cc2ccc(N(CC)CC)cc2)C(=O)C(=Cc2ccc(N(CC)CC)cc2)C1 (centres undefined) | 141
12 | COc1nc2cc([N+](=O)[O-])c(C)c(C(=O)NCCC(=O)OC(C)(C)C)c2nc1OC | 140 to 142
13 | CNC(=O)CN1CCc2cc(Nc3ncc(Cl)c(Nc4cc(C(N)=O)ccc4OC)n3)c(OC)cc2CC1 | 225 to 236
14 | CON1C=C2N=NC3=C(N2C1)N(c1ccccc1Cl)CC(C)=C3 | 198 to 200
15 | COC(=O)c1c(Cl)cc(Cl)cc1NC(=O)CSc1ccc(NC(=O)Cc2ccccc2)cc1 | 156 to 158
16 | CCCN(CCC)C1Cc2cc(C)cc3ncn(c23)C1 (centres undefined) | 91 to 94
17 | ON=C1c2ncc(Cl)cc2C=CC1Cl (centres undefined) | 202
18 | O=C1CCC(CCc2ccc(-n3ccnc3)cc2)=NN1 | 195 to 196
19 | CC(=O)CCCCCCC(CC(C)C(O)C(N)CO)c1cccs1 (centres undefined) | 96 to 99
20 | COC(C)c1nc(C(C)(C)O)c(C(=O)O)n1Cc1ccc(-c2ccccc2-c2nnn[nH]2)cc1 (centres undefined) | 174 to 185
21 | COc1ccc(N)c(C(=O)O)c1OC | 71 to 72
22 | NC(=O)c1cccc(Cn2ccc(OCc3ccc(F)cc3F)c(Cl)c2=O)c1F | 252 to 254
23 | O=C(Nc1ccccc1)C1=NOCCS1(=O)=O | 206 to 207
24 | COc1ccc(CNc2cc3c(Nc4ccc(F)c(C(F)(F)F)c4)ncnc3cn2)cc1 | 202 to 204

Second part, the compound after the results:

Row | melting point [°C] | SMILES
25 | 161 to 162 | COc1cc(CCCC2SC(=O)NC2=O)ccc1OCc1csc(/C=C/c2ccccc2)n1 (centres undefined)
26 | 75 | C1CNCCN2CCNCCNCCN(CCN1)CCOCCOCC2
27 | 196 to 197 | CC(=O)Nc1c(-c2ccc(Cl)cc2)c2ccccc2n1C
28 | 83 to 85 | CC(C(=O)O)c1ccc(-n2cccn2)c(Cl)c1 (centres undefined)
29 | 185 to 187 | Cc1nc2c3c(ccn2c1C)C(=O)[C@H](OC(=O)C(C)(C)C)[C@@H](c1ccccc1)N3
30 | 167 to 170 | CCOC(=O)c1ccc(C=C(CCCc2ccc(C(=O)O)cc2)Cn2ccnc2)cc1
31 | 281 | COc1ccc(C(=O)C2=C(O)C(=O)N(c3nnc(C)s3)C2c2cccc(C(=O)O)c2)cc1 (centres undefined)
32 | 108 | Oc1cc(Cl)c(OCc2ccccc2Cl)c(Cl)c1
33 | 193 to 194 | Nc1cc(C(F)(F)F)ccc1-c1cc(Oc2ccc3cccnc3c2)ncn1
34 | 182 to 186 | CC(=O)c1c(C)c2cnc(N)nc2n(C2CCCC2)c1=O
35 | 86 | c1ccc2c(c1)Cc1sccc1CN2
36 | 182 to 184 | O=C(NCc1ccc(Cl)cc1)c1nn(-c2ccccc2)c2sc(CN3CCOCC3)cc2c1=O
37 | > 300 | N#Cc1cc2nc(O)c(O)nc2c2[nH]nnc12
38 | 105 to 107 | CN1CCN(C2Cc3ccccc3Sc3cc(F)c(Cl)cc32)CC1 (centres undefined)
39 | 148 | CCCc1c(-c2cc(=O)c3c(O)c(CCC)c(OCC4=COC(C)(C)O4)cc3o2)ccc(OC)c1O
